Results taken from patent US10351536B2, “Crystalline forms of lesinurad and its sodium salt” (CRYSTAL PHARMATECH CO., LTD., priority 2013, dated 2019).
Counter-ions that a name gives are not always drawn. One block for each molecule: values may come before it.

Key:
[1] = Stability assessment of lesinurad sodium salt Form β on storage (XRPD); type: physicochemical; details: room temperature, 12 months
Method: (§1) Analytical Instrument: Panalytical Empyrean. The X-ray powder diffractogram was determined by mounting a sample of the crystalline material on a Si single crystal low-background holder and spreading out the sample into a thin layer with the aid of a microscope slide. The 2θ position was calibrated against Panalytical 640 Si powder standard. The sample irradiated with X-rays generated by a copper long-fine focus tube operated at 45 kV and 40 mA with a wavelength of Kα1=1.540589 angstroms and Kα2=1.544426 angstroms (Kα1/Kα2 intensity ratio is 0.50). The collimated X-ray source was passed through a programmed divergence slit set at 10 mm and the reflected radiation directed through a 5.5 mm anti-scattering slit. The sample was exposed for 16.3 seconds per 0.013° 2-theta increment (continuous scan mode) over the range 3 degrees to 40 degrees 2-theta in theta-theta mode. The running time was 3 minutes and 57 seconds. The instrument was equipped with an RTMS detector (X'Celerator). Control and data capture was accomplished by means of a Dell Optiplex 780 XP operating with data collector software.
A sample of the lesinurad sodium salt Form β was stored under room temperature for 12 months. The solid sample was analyzed by XRPD.

[2] = Hygroscopicity assessment by dynamic vapor sorption (DVS); type: physicochemical; details: 25° C.
Method: Dynamic Vapor Sorption (DVS) was measured via a SMS (Surface Measurement Systems) DVS Intrinsic. The relative humidity at 25° C. were calibrated against deliquescence point of LiCl, Mg(NO3)2 and KCl. Typical Parameters for DVS test are listed below.
Hygroscopicity of lesinurad Form III was investigated using dynamic vapor sorption (DVS).
Hygroscopicity criteria applied in this example refer to the standard in European pharmacopoeia: • deliquescent: sufficient water is absorbed to form a liquid, • very hygroscopic: increase in mass is equal to or greater than 15 percent, • hygroscopic: increase in mass is less than 15 percent and equal to or greater than 2 percent, • slightly hygroscopic: increase in mass is less than 2 percent and equal to or greater than 0.2 percent.

[3] = Stability assessment of Form III under stress conditions (XRPD); type: physicochemical; details: 14 days; for Final form: dish open, XRPD
Method: as §1
Two samples of lesinurad Form III were stored under 25° C./60% RH and 40° C./75% RH, respectively, with dish open for 14 days. The solid samples were analyzed by XRPD.

[4] = Inter-conversion of Form A and Form α of lesinurad sodium salt by stirring in water (XRPD); type: physicochemical
[5] = test system: gout patients; details: Phase III, gout patients without benefit from allopurinol and febuxostat, lesinurad alone; cited from earlier work

Structure (SMILES): O=C(O)CSc1nnc(Br)n1-c1ccc(C2CC2)c2ccccc12 [Form α, lesinurad sodium salt]
Relative stability in water ([4]; in water under ambient conditions): more stable in comparison to Form A

Structure (SMILES): O=C(O)CSc1nnc(Br)n1-c1ccc(C2CC2)c2ccccc12 [lesinurad, 2-((5-bromo-4-(4-cyclopropylnaphthalen-1-yl)-4H-1,2,4-triazol-3-yl)thio)acetic acid]
Serum levels of uric acid [5]: significantly reduced serum levels of uric acid

Structure (SMILES): O=C(O)CSc1nnc(Br)n1-c1ccc(C2CC2)c2ccccc12 [Form A, lesinurad sodium salt, reference compound]
Form conversion after stirring in water ([4]; water, 500 rpm, 24 hours, ambient conditions, XRPD): converts to Form α

Continued, in another order:

Stability under the stress conditions [1]: stable under the stress conditions
Final form ([1]; XRPD): salt Form β
Structure (SMILES): O=C(O)CSc1nnc(Br)n1-c1ccc(C2CC2)c2ccccc12 [Form β, lesinurad sodium salt]

Water uptake under 80% RH ([2]; 80% RH): 0.8%
Water uptake under 95% RH ([2]; 95% RH): 2.4%
Stability under the stress conditions ([3]; 25° C./60% RH and 40° C./75% RH): stable under the stress conditions
Final form ([3]; 25° C./60% RH): Form III
Final form ([3]; 40° C./75% RH): Form III
Structure (SMILES): O=C(O)CSc1nnc(Br)n1-c1ccc(C2CC2)c2ccccc12 [Form III, 2-((5-bromo-4-(4-cyclopropylnaphthalen-1-yl)-4H-1,2,4-triazol-3-yl)thio)acetic acid]
Hygroscopicity (European pharmacopoeia criteria) ([2]; 80% RH): slightly hygroscopic (increase in mass is less than 2 percent and equal to or greater than 0.2 percent)
